Test results: patent US20230322753A1, “HETEROARYL DERIVATIVE, METHOD FOR PREPARATION THEREOF, AND PHARMACEUTICAL COMPOSITION COMPRISING SAME AS ACTIVE INGREDIENT” (VORONOI INC., priority 2020, published 2023)

Columns and labels:
Format in all cases: cell-based
Settings in all cases: Mus musculus, BaF3, 72 hours, CellTiter-Glo
[1] = system: Ba/F3 cells expressing EGFR Exon20 ins NPH; assay: Ba/F3 proliferation suppression activity, cells expressing EGFR Exon20 ins NPH
Procedure: A following experiment was carried out to evaluate the suppression activity of the compounds according to the present invention against the proliferation of Ba/F3 which expresses EGFR mutations.
(§1) For the Ba/F3 cells, a RPMI-1640 medium containing 10% FBS and 5 ng/ml IL-3 (R&D Systems) was used. The transduced Ba/F3 cells were cultured in a medium, which is same as the above medium, but 1 ug/ml puromycin (Invitrogen) was additionally added to.
(§2) 24 hours before the treatment of the cells with the compounds, 3000 to 5000 cells were distributed into each well of a white clear bottom 96 well plate (Corning). The compounds were diluted in a dimethyl sulfoxide (e.g. dilution ratio of 3:1 and total 12 concentrations) and then injected by 0.5 ul respectively, such that a final concentration amounted to 0.3 nM to 50 uM. 72 hours after the treatment with the compounds, the measurement of live cells was made in such way that these cells were stored for 10 minutes at a room temperature using a CellTiter-Glo luminescent cell-viability reagent (Promega) and then their luminescence intensities were measured using a reader (i.e. Synergy Neo, Biotek). Each test was repeated three times.
(§3) resulting values were calculated as a cell growth ratio (%) compared to a control. Then, the graphs were drawn and the […] values were calculated by using a program, GraphPad Prism version 5.0.

[2] = system: Ba/F3 cells expressing HER2 YVMA Exon 20ins; assay: Ba/F3 proliferation suppression activity, cells expressing HER2 YVMA Exon 20ins
Procedure: as §1, §2, §3

[3] = system: Ba/F3 cells expressing HER2 WT; assay: Ba/F3 proliferation suppression activity, cells expressing ErbB2 (HER2) wild type
Procedure: as §1, §2, §3

| Structure (SMILES) | GI50 [1] [nM] | GI50 [2] [nM] | GI50 [3] [nM] |
| --- | --- | --- | --- |
| C=CC(=O)Nc1cc(Nc2cc(N3OCC[C@@H]3c3cc(F)cc(C(F)(F)F)c3)ncn2)c(OC)cc1N1CCC(N2CCN(C3CC3)CC2)CC1 [Compound 1] | < 50 | 50 to 500 | – |
| C=CC(=O)Nc1cc(Nc2cc(N3OCC[C@@H]3c3ccc(F)c(C(F)(F)F)c3)ncn2)c(OC)cc1N1CCN(C)CC1 [Compound 37] | < 50 | < 50 | – |
| C=CCN1CCN(c2cc(OC)c(Nc3cc(N4OCC[C@@H]4c4ccc(F)c(C(F)(F)F)c4)ncn3)cc2NC(=O)C=C)CC1 [Compound 41] | < 50 | < 50 | < 50 |
| C=CC(=O)Nc1cc(Nc2cc(N3OCC[C@@H]3c3ccc(F)c(C(F)(F)F)c3)ncn2)c(OC)cc1N1CCC(N2CCN(C3CC3)[C@@H](C)C2)CC1 [Compound 52] | < 50 | < 50 | < 50 |
| C=CC(=O)Nc1cc(Nc2cc(N3OCC[C@@H]3c3ccc(F)c(C(F)(F)F)c3)ncn2)c(OC)cc1N1CCC(N2CCN(C3CC3)[C@H](C)C2)CC1 [Compound 53] | < 50 | < 50 | – |
| C=CC(=O)Nc1cc(Nc2cc(N3OCC[C@@H]3c3ccc(F)c(C(F)(F)F)c3)ncn2)c(OC)cc1N1CCN(CCC)CC1 [Compound 55] | < 50 | < 50 | < 50 |
| C=CC(=O)Nc1cc(Nc2cc(N3OCC[C@@H]3c3ccc(F)c(C(F)(F)F)c3)ncn2)c(OC)cc1N1CCC(N2CCO[C@@H](C)C2)CC1 [Compound 58] | < 50 | < 50 | – |
| C=CC(=O)Nc1cc(Nc2cc(N3OCC[C@@H]3c3cccc(C(F)(F)F)c3F)ncn2)c(OC)cc1N1CCN(C)CC1 [Compound 60] | < 50 | < 50 | – |
| C=CC(=O)Nc1cc(Nc2cc(N3OCC[C@@H]3c3cccc(C(F)(F)F)c3F)ncn2)c(OC)cc1N(C)CCN(C)C [Compound 61] | < 50 | < 50 | – |
| C=CC(=O)Nc1cc(Nc2cc(N3OCC[C@@H]3c3cccc(C(F)(F)F)c3F)ncn2)c(OC)cc1N1CCC(N2CCN(C3CC3)CC2)CC1 [Compound 62] | < 50 | < 50 | – |
| C=CC(=O)Nc1cc(Nc2cc(N3OCC[C@@H]3c3cccc(C(F)(F)F)c3F)ncn2)c(OC)cc1N1CCC(N2CCOCC2)CC1 [Compound 66] | < 50 | – | – |
| C=CC(=O)Nc1cc(Nc2cc(N3OCC[C@@H]3c3cccc(C(F)(F)F)c3F)ncn2)c(OC)cc1N1CCC(N2CCN(C3CC3)[C@@H](C)C2)CC1 [Compound 67] | 50 to 500 | – | – |
| C=CC(=O)Nc1cc(Nc2cc(N3OCC[C@@H]3c3cccc(C(F)(F)F)c3F)ncn2)c(OC)cc1N1CCC(N2CCN(C3CC3)[C@H](C)C2)CC1 [Compound 68] | 50 to 500 | – | – |
| C=CC(=O)Nc1cc(Nc2cc(N3OCC[C@@H]3c3cccc(C(F)(F)F)c3F)ncn2)c(OC)cc1N1CCN(C2COC2)CC1 [Compound 69] | < 50 | – | – |
| C=CC(=O)Nc1cc(Nc2cc(N3OCC[C@@H]3c3cccc(C(F)(F)F)c3F)ncn2)c(OC)cc1OCCN(C)C [Compound 70] | < 50 | – | – |
| C=CC(=O)Nc1cc(Nc2cc(N3OCC[C@@H]3c3cccc(C(F)(F)F)c3F)ncn2)c(OC)cc1N1CCC(N2CCC2)CC1 [Compound 71] | < 50 | – | – |
| C=CC(=O)Nc1cc(Nc2cc(N3OCC[C@@H]3c3cccc(C(F)(F)F)c3F)ncn2)c(OC)cc1N1CCC[C@@H]1CN1CCC1 [Compound 72] | 50 to 500 | – | – |
| C=CC(=O)Nc1cc(Nc2cc(N3OCC[C@@H]3c3cccc(C(F)(F)F)c3F)ncn2)c(OC)cc1N1CCC(N2C[C@@H](C)O[C@@H](C)C2)CC1 [Compound 73] | < 50 | – | – |
| C=CC(=O)Nc1cc(Nc2cc(N3OCC[C@@H]3c3cccc(C(F)(F)F)c3F)ncn2)c(OC)cc1N1CCC(N2CCN(C)C(=O)C2)CC1 [Compound 74] | 50 to 500 | – | – |
| C=CC(=O)Nc1cc(Nc2cc(N3OCC[C@@H]3c3cccc(C(F)(F)F)c3F)ncn2)c(OC)cc1N1CCO[C@@H](C)C1 [Compound 75] | 50 to 500 | – | – |
| C=CC(=O)Nc1cc(Nc2cc(N3OCC[C@@H]3c3cccc(C(F)(F)F)c3F)ncn2)c(OC)cc1N1CCN(C)[C@@H](C)C1 [Compound 76] | < 50 | – | – |
| C=CC(=O)Nc1cc(Nc2cc(N3OCC[C@@H]3c3cccc(C(F)(F)F)c3F)ncn2)c(OC)cc1N1CCC(N2CCCN(C3CC3)CC2)CC1 [Compound 77] | 50 to 500 | – | – |
| C=CC(=O)Nc1cc(Nc2cc(N3OCC[C@@H]3c3cccc(C(F)(F)F)c3F)ncn2)c(OC)cc1N1CCC(N2CCN(C(C)C)CC2)CC1 [Compound 78] | < 50 | – | – |
| C=CC(=O)Nc1cc(Nc2cc(N3OCC[C@@H]3c3cccc(C(F)(F)F)c3F)ncn2)c(OC)cc1N1CCO[C@H](C)C1 [Compound 79] | 50 to 500 | – | – |
| C=CC(=O)Nc1cc(Nc2cc(N3OCC[C@@H]3c3cccc(C(F)(F)F)c3F)ncn2)c(OC)cc1N1CCN(C)[C@H](C)C1 [Compound 80] | < 50 | – | – |
| C=CC(=O)Nc1cc(Nc2cc(N3OCC[C@@H]3c3cccc(C(F)(F)F)c3F)ncn2)c(OC)cc1N1CCN(C2CC2)CC1 [Compound 81] | 50 to 500 | – | – |

| Structure (SMILES) | GI50 [1] [nM] | GI50 [2] [nM] | GI50 [3] [nM] |
| --- | --- | --- | --- |
| C=CC(=O)Nc1cc(Nc2cc(N3OCC[C@@H]3c3cccc(C(F)(F)F)c3F)ncn2)c(OC)cc1N1CCC(N(C)C)CC1 [Compound 82] | < 50 | – | – |
| C=CC(=O)Nc1cc(Nc2cc(N3OCC[C@@H]3c3cccc(C(F)(F)F)c3F)ncn2)c(OC)cc1N1CCC(N2CCN(C3CC3)C(C)(C)C2)CC1 [Compound 83] | 50 to 500 | – | – |
| C=CC(=O)Nc1cc(Nc2cc(N3OCC[C@@H]3c3cccc(C(F)(F)F)c3F)ncn2)c(OC)cc1N1CCC(N2CCN(C3COC3)CC2)CC1 [Compound 84] | < 50 | – | – |
| C=CC(=O)Nc1cc(Nc2cc(N3OCC[C@@H]3c3cccc(C(F)(F)F)c3F)ncn2)c(OC)cc1N1CCN(C)C(=O)C1 [Compound 85] | 50 to 500 | – | – |
| C=CC(=O)Nc1cc(Nc2cc(N3OCC[C@@H]3c3cccc(C(F)(F)F)c3F)ncn2)c(OC)cc1N1C[C@H]2C[C@@H]1CO2 [Compound 86] | 50 to 500 | – | – |
| C=CC(=O)Nc1cc(Nc2cc(N3OCC[C@@H]3c3cccc(C(F)(F)F)c3F)ncn2)c(OC)cc1N(C)CCNC [Compound 87] | < 50 | – | – |
| C=CC(=O)Nc1cc(Nc2cc(N3OCC[C@@H]3c3cccc(C(F)(F)F)c3F)ncn2)c(OC)cc1N1CC[C@@H](N(C)C)C1 [Compound 88] | 50 to 500 | – | – |
| C=CC(=O)Nc1cc(Nc2cc(N3OCC[C@@H]3c3cccc(C(F)(F)F)c3F)ncn2)c(OC)cc1N1CCC(N2C[C@H]3C[C@@H]2CO3)CC1 [Compound 89] | < 50 | – | – |
| C=CC(=O)Nc1cc(Nc2cc(N3OCC[C@@H]3c3cccc(C(F)(F)F)c3F)ncn2)c(OC)cc1N1CCC(N2CCN(C)CC2)CC1 [Compound 90] | < 50 | – | – |
| C=CC(=O)Nc1cc(Nc2cc(N3OCC[C@@H]3c3cccc(C(F)(F)F)c3F)ncn2)c(OC)cc1N1CCC(N2CCN(C(C)=O)CC2)CC1 [Compound 91] | 50 to 500 | – | – |
| C=CC(=O)Nc1cc(Nc2cc(N3OCC[C@@H]3c3cccc(C(F)(F)F)c3F)ncn2)c(OC)cc1N1C[C@@H]2C[C@H]1CO2 [Compound 92] | 50 to 500 | – | – |
| C=CC(=O)Nc1cc(Nc2cc(N3OCC[C@@H]3c3cccc(C(F)(F)F)c3F)ncn2)c(OC)cc1N1CCN(CCC)CC1 [Compound 93] | < 50 | – | – |
| C=CCN1CCN(c2cc(OC)c(Nc3cc(N4OCC[C@@H]4c4cccc(C(F)(F)F)c4F)ncn3)cc2NC(=O)C=C)CC1 [Compound 94] | < 50 | – | – |
| C=CC(=O)Nc1cc(Nc2cc(N3OCC[C@@H]3c3cccc(C(F)(F)F)c3F)ncn2)c(OC)cc1N1CC[C@@H](CN(C)C)C1 [Compound 95] | < 50 | – | – |
| C=CC(=O)Nc1cc(Nc2cc(N3OCC[C@@H]3c3cccc(C(F)(F)F)c3F)ncn2)c(OC)cc1N1CCC(N2C[C@@H]3C[C@H]2CO3)CC1 [Compound 96] | < 50 | – | – |
| C=CC(=O)Nc1cc(Nc2cc(N3OCC[C@@H]3c3cccc(C(F)(F)F)c3F)ncn2)c(OC)cc1N1CCC(N2CCNCC2)CC1 [Compound 97] | < 50 | – | – |
| C=CC(=O)Nc1cc(Nc2cc(N3OCC[C@@H]3c3cc(F)cc(F)c3)ccn2)c(OC)cc1N1CCC(N2CCN(C3CC3)CC2)CC1 [Compound 98] | 50 to 500 | – | – |
| C=CC(=O)Nc1cc(Nc2cc(N3OCC[C@@H]3c3cc(F)cc(F)c3)ccn2)c(OC)cc1N(C)CCN(C)C [Compound 99] | 50 to 500 | – | – |
| C=CC(=O)Nc1cc(Nc2cc(N3OCC[C@@H]3c3cc(F)cc(F)c3)ccn2)c(OC)cc1N1CCN(C)CC1 [Compound 100] | 500 to 5000 | – | – |
| C=CC(=O)Nc1cc(Nc2cc(N3OCC[C@@H]3c3cc(F)cc(F)c3)ncn2)c(OC)cc1SCCN(C)C [Compound 101] | < 50 | – | – |
| C=CC(=O)Nc1cc(Nc2cc(N3OCC[C@@H]3c3cc(F)cc(F)c3)ncn2)c(OC)cc1N1CCSCC1 [Compound 107] | 50 to 500 | – | – |
| C=CC(=O)Nc1cc(Nc2nccc(N3OCC[C@@H]3c3ccccc3)n2)c(OC)cc1N(C)CCN(C)C [Compound 108] | 50 to 500 | – | – |
| C=CC(=O)Nc1cc(Nc2cc(N3OCCC3c3cccc4c3cnn4C)ncn2)c(OC)cc1N1CCN(C)CC1 (centres unmarked) [Compound 125] | 50 to 500 | – | – |
| C=CC(=O)Nc1cc(Nc2cc(N3OCCC3c3cccc4c3cnn4C)ncn2)c(OC)cc1N1CCC(N2CCN(C3CC3)CC2)CC1 (centres unmarked) [Compound 126] | < 50 | – | – |
| C=CC(=O)Nc1cc(Nc2cc(N3OCC[C@@H]3c3cc(F)cc(F)c3)ncn2)c(OCC(F)(F)F)nc1N1CCN(C)CC1 [Compound 128] | 50 to 500 | – | – |
| C=CC(=O)Nc1cc(Nc2ncc(C(=O)OC(C)C)c(-c3cn(C)c4ccccc34)n2)c(OC)cc1N(C)CCN(C)C [TAK788, reference compound] | < 50 | – | – |
